Patent US5798361A, “5H-thiazolo[3,2-a]pyrimidin-5-one derivatives” (Ferrer Internacional, S.A., priority 1995, dated 1998)

Columns and labels:
[1] = Catalepsy by oral route in Sprague-Dawley rats; format: in vivo; details: for ED50: rat, in vivo, oral, Sprague-Dawley rats, 50% of treated animals showed catalepsy; for R (Catalepsy/Climbing): ratio of ED50 values
[2] = tested on: apomorphine-induced climbing behaviour; test: Inhibition of apomorphine-induced climbing behaviour; format: in vivo, Male Swiss mice; details: Mus musculus, 1 h; oral, mice, apomorphine 1 mg/kg s.c. at 60 min
Description: (§1) The inhibiton test of apomorphine-induced climbing behaviour and the inhibition test of DOI-induced head twitches and scratches are hereinafter described.
Inhibition of aoomorphine-induced climbing behaviour
Male Swiss mice weighing 22-24 g were used. One week prior to experiment, animals were kept in our facilities at a temperature of 20°-22° C. and 12/12 h light-dark cycle, and had free access to food and water. Two hours prior to experiment, the animals were placed in individual cages without access to food.
Animals were administered orally with test drug or 0.25% agar at time 0. After 60 minutes, apomorphine was subcutaneously injected at a dose of 1 mg/kg, and after further 70 minutes the animal's behaviour was assessed. Two additional assessments were performed at 10-min intervals. For assessment, each animal was placed on the bottom of a small upright box (11×7.5×4.5 cm). The walls of the box were made of translucent methacrylate except one of the lateral surfaces (7.5 cm wide) which was a 3-mm wire mesh. The position of the animal was scored for 2 minutes according to the following criteria: 0=four paws on the floor; 1=three paws on the floor; 2=two paws on the floor; 3=one paw on the floor; and 4=four paws holding the wire mesh. If an animal keeps several positions within the 2-min observation, the seconds elapsed in each position will be recorded. Finally, mean scoring was calculated.

D2 receptors = target: T1, D2 receptors (Rattus norvegicus, UniProt P61169); test: Specific binding to D2 receptors ([3H]spiperone, rat striatum membrane); details: for IC50: [3H]spiperone 2 nM, rat striatum membrane, 20 min, 35° C., pH 7.4; for D2/5HT2 ratio: ratio of IC50 values, D2 over 5HT2
T1 construct: membrane corresponding to 20 mg of rat striatum; from tissue; host or cells: rat striatum membrane
Description: (§2) Specific binding to D2 and 5HT2 receptors was tested as follows:
D2 receptors: A 2-nM solution of radioactive spiperone ([^3 H]spiperone), which acts as a specific ligand, was incubated with the membrane corresponding to 20 mg of rat striatum for 20 min at 35° C. buffered at pH 7.4 with Tris.HCl. The non-specific binding was then determined by addition of a micromolar concentration of unlabelled spiperone. […] After the incubation was completed, the sample was filtered through a glass fiber filter and then washed three times with Tris.HCl buffer. The amount of receptor-bound radioactivity was retained on the membrane and determined by liquid scintillation counting.

5HT2 receptors [3] = target: T2, 5HT2 receptors (Rattus norvegicus, UniProt P14842); test: Specific binding to 5HT2 receptors ([3H]ketanserin, rat cortex membrane); details: [3H]ketanserin 0.5 nM, 30 min, 35° C., pH 7.4
T2 construct: membrane corresponding to 1 mg of rat cortex; from tissue; host or cells: rat cortex membrane
Description: as §2
5HT2 receptors: A 0.5 nM solution of radioactive ketanserin ([^3 H]ketanserin), which acts as a specific ligand, was incubated with the membrane corresponding to 1 mg of rat cortex for 30 min at 35° C. buffered at pH 7.4 with Tris.HCl. Non-specific binding was then determined by addition of 5 micromolar concentration of unlabelled mianserin. IC50 (inhibitory concentration 50%) was calculated from the inhibition rate of the specific binding obtained by addition of eleven different concentrations of the compounds to be tested. After the incubation was completed, the sample was filtered through a glass fiber filter and then washed three times with Tris.HCl buffer. The amount of receptor-bound radioactivity was retained on the membrane and determined by liquid scintillation counting.

5HT2 receptors [4] = target: T3, 5HT2 receptors (Mus musculus, UniProt P35363); test: Inhibition of DOI-induced head twitches and scratches; format: in vivo, Male N.M.R.I. mice; details: p.o., mice, DOI 3 mg/kg i.p. at 60 min
T3 construct: Male N.M.R.I. mice weighing 22-26 g were used; from tissue; host or cells: living male N.M.R.I. mice (whole animal, endogenous receptor)
Description: as §1
Inhibition of DOI-induced head twitches and scratches
Male N.M.R.I. mice weighing 22-26 g were used. After the animals were weighed, they were individually placed in transparent cages two hours prior to experiment. Test compound was given p.o. at time 0. The administration interval time between mice was 5 min. At time 60 min DOI at the dose of 3 mg/kg i.p. dissolved in saline was administered. The number of head twitches and scratches were assessed as well as the presence or absence of escape attempts.

T2 sequence (P14842 whole entry): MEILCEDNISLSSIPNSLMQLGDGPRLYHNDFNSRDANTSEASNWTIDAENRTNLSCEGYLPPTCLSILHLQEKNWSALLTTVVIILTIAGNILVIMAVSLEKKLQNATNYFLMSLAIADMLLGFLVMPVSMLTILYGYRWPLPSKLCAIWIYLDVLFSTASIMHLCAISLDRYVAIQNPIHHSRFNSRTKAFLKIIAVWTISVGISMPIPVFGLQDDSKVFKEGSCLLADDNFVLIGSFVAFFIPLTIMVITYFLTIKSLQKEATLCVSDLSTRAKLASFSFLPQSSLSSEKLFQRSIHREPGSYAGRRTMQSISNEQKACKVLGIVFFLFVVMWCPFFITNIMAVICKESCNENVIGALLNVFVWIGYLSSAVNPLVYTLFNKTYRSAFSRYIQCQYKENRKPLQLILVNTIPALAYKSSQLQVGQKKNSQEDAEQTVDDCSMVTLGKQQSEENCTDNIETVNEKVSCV
T1 sequence (P61169 whole entry): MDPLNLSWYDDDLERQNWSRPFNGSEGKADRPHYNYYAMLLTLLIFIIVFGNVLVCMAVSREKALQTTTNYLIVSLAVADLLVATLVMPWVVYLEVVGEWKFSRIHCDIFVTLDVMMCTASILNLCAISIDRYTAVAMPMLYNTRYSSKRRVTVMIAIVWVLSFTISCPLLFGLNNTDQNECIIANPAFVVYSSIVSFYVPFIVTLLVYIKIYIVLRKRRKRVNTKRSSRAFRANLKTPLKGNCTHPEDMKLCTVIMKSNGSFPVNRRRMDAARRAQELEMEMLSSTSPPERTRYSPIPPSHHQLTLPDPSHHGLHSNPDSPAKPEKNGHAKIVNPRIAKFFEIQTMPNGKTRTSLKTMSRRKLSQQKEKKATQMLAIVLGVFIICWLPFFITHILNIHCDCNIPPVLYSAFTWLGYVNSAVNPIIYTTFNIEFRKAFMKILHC
T3 sequence (P35363 whole entry): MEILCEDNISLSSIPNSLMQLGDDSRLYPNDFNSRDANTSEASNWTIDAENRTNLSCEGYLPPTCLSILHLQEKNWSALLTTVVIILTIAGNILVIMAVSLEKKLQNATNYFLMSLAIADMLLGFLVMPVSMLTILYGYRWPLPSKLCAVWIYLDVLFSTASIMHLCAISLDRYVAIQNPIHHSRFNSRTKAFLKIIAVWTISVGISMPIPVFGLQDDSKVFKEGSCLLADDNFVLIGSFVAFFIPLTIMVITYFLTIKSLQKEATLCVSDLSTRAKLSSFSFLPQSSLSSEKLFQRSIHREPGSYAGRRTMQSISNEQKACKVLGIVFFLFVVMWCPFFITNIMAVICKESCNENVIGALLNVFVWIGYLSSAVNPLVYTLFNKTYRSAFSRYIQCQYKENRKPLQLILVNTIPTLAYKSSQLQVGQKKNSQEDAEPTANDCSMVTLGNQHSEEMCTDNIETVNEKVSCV

Row | Structure (SMILES) | ED50 [1] [mg/kg] | R (Catalepsy/Climbing) [1] | ED50 [2] [mg/kg] | IC50 (D2 receptors) [nM] | D2/5HT2 ratio (D2 receptors) | IC50 (5HT2 receptors [3]) [nM] | ED50 DOI (5HT2 receptors [4]) [mg/kg]
1 | Cc1nc2scc(-c3ccc(Cl)cc3)n2c(=O)c1CCN1CCC(c2noc3cc(F)ccc23)CC1 [Example 19] | 9.5 | 2.7 | 3.5 | 43.6 | 3.9 | 11.1 | 0.82
2 | COc1cccc(-c2csc3nc(C)c(CCN4CCC(c5noc6cc(F)ccc56)CC4)c(=O)n23)c1 [Example 22] | 40 | 2.1 | 19 | 28 | 3.8 | 7.46 | 1.10
3 | Cc1cccc(-c2csc3nc(C)c(CCN4CCC(c5noc6cc(F)ccc56)CC4)c(=O)n23)c1 [Example 23] |  |  |  | 22.3 | 0.7 | 32.1 | 
4 | Cc1nc2scc(-c3cccc(Cl)c3)n2c(=O)c1CCN1CCC(c2noc3cc(F)ccc23)CC1 [Example 21] |  |  |  | 16.6 | 0.7 | 24.5 | 
5 | Cc1nc2scc(-c3ccccc3)n2c(=O)c1CCN1CCC(C(=O)c2ccc(F)cc2)CC1 [Example 27] | > 50 |  | > 50 | 174 | 13.9 | 12.5 | 1.20
6 | Cc1nc2scc(-c3ccccc3F)n2c(=O)c1CCN1CCC(c2noc3cc(F)ccc23)CC1 [Example 26] | > 50 |  | > 50 | 82 | 23.4 | 3.51 | 0.42
7 | COc1ccc(-c2csc3nc(C)c(CCN4CCC(C(=O)c5ccc(F)cc5)CC4)c(=O)n23)cc1 [Example 28] | > 50 | > 2.0 | 24.6 | 79.9 | 9.7 | 8.26 | 0.60
8 | Cc1ccc(-c2csc3nc(C)c(CCN4CCC(c5noc6cc(F)ccc56)CC4)c(=O)n23)cc1 [Example 17, 6-[2-[4-(6-fluoro-1,2-benzisoxazol-3-yl)-1-piperidinyl]ethyl]-3-(4-methylphenyl)-7-methyl-5H-thiazolo[3,2-a]pyrimidin-5-one] | 22.5 | 5.8 | 3.9 | 36.4 | 2.4 | 14.9 | 0.57
9 | Cc1nc2scc(-c3ccc(F)cc3)n2c(=O)c1CCN1CCC(c2noc3cc(F)ccc23)CC1 [Example 14, 6-[2-[4-(6-fluoro-1,2-benzisoxazol-3-yl)-1-piperidinyl]ethyl]-3-(4-fluorophenyl)-7-methyl-5H-thiazolo[3,2-a]pyrimidin-5-one] | 9.3 | 3.2 | 2.9 | 19.7 | 6.2 | 3.18 | 0.28
10 | Cc1nc2scc(-c3ccc(Cl)c(Cl)c3)n2c(=O)c1CCN1CCC(c2noc3cc(F)ccc23)CC1 [Example 20] |  |  |  | 19.4 | 0.6 | 35.2 | 
11 | O=C(CCCN1CCC(O)(c2ccc(Cl)cc2)CC1)c1ccc(F)cc1 [Haloperidol, reference compound] | 1.95 |  | 1.2 |  |  |  | 
12 | Cc1nc2scc(-c3ccccc3Cl)n2c(=O)c1CCN1CCC(c2noc3cc(F)ccc23)CC1 [Example 24] | > 50 |  | > 50 | 29.2 | 1.0 | 29.5 | 1.50
13 | Cc1nc2scc(-c3ccc4c(c3)OCO4)n2c(=O)c1CCN1CCC(c2noc3cc(F)ccc23)CC1 [Example 18] | 20 | 2.6 | 7.7 | 17.3 | 2.3 | 7.63 | 0.80
14 | Cc1nc2scc(-c3ccccc3)n2c(=O)c1CCN1CCC(c2noc3cc(F)ccc23)CC1 [Example 15, 6-[2-[4-(6-fluoro-1,2-benzisoxazol-3-yl)-1-piperidinyl]ethyl]-3-phenyl-7-methyl-5H-thiazolo[3,2-a]pyrimidin-5-one] | 16 | 1.1 | 14.7 | 44.1 | 11.2 | 3.94 | 0.58
15 | Cc1nc2scc(-c3cccc(C(F)(F)F)c3)n2c(=O)c1CCN1CCC(c2noc3cc(F)ccc23)CC1 [Example 25] |  |  |  | 20.9 | 0.3 | 83.3 | 
16 | COc1ccc(-c2csc3nc(C)c(CCN4CCC(c5noc6cc(F)ccc56)CC4)c(=O)n23)cc1 [Example 16, 6-[2-[4-(6-fluoro-1,2-benzisoxazol-3-yl)-1-piperidinyl]ethyl]-3-(4-methoxyphenyl)-7-methyl-5H-thiazolo[3,2-a]pyrimidin-5-one] | 30 | 4.1 | 7.4 | 42.1 | 5.1 | 8.32 | 0.84
